Consider 14 compounds from US12441754B2, “Galactoside inhibitor of galectins” (GALECTO BIOTECH AB, priority 2019, dated 2025).

The term Papp A→B denotes the apparent permeability from the apical to the basolateral side of a cell layer. Broadly, the Papp B→A is the apparent permeability from the basolateral to the apical side of a cell layer.

In data set [1] the target is T1, Galectin-1 (Homo sapiens, UniProt P09382). Conditions: T. Delaine 2016; read-out: affinity to Galectin-1; cited from earlier work.
T1 sequence (P09382 whole entry): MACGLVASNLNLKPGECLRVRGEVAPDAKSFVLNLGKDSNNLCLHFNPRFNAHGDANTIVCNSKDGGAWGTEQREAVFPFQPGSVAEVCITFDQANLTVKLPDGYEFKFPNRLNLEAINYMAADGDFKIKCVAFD
The next data set relates to T2, galectins.
T2 construct: Kd, all galectins; other: compared with lactose
The settings on record: cited from earlier work.

Data set [2] deals with T1, Galectin-1. Kind of data set: fluorescence anisotropy assay, compound as inhibitor of galectin / fluorescein tagged saccharide probe interaction. The data set is classed as binding. The text has this:
(§1) Anal. Biochem. 334: 36-47, (Sörme et al., 2004) and Monovalent interactions of Galectin-1 By Salomonsson, Emma; Larumbe, Amaia; Tejler, Johan; Tullberg, Erik; Rydberg, Hanna; Sundin, Anders; Khabut, Areej; Frejd, Torbjorn; Lobsanov, Yuri D.; Rini, James M.; et al, From Biochemistry (2010), 49(44), 9518-9532, (Salomonsson et al., 2010).
For orientation: In fluorescence polarisation assays a small probe gives low polarisation when free and higher when bound to something large.

A further data set deals with Galectin-3 (Homo sapiens, UniProt P17931). Described as above. The data set is classed as binding.
Sequence of Galectin-3 (P17931 whole entry): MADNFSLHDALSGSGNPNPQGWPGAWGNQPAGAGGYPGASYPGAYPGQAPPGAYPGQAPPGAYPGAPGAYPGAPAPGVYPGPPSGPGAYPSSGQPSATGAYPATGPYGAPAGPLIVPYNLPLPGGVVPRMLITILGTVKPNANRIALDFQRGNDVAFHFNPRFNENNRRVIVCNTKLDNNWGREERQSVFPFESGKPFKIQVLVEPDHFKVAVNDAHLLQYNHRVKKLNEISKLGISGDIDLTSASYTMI
Text: as §1

Data set [3] can be described thus: CACO-2 model of uptake over the human intestine. Type of data set: in vitro ADME. The settings on record: human, Caco-2. The text has this:
(§2) For some compounds of this invention wherein R^1 of formula 1 is an alkylated hydroxy, for example —OCH3 high uptake and no efflux is observed in a CACO-2 model of uptake ver the human intestine. That predicts high likeliness of high human oral bioavailability.

In a further data set the test system is CACO-2. Kind of data set: CACO-2 model of uptake over the human intestine. Type of data set: in vitro ADME. The settings on record: result in words.
Text: as §2

Read-outs that look alike come from different tables or passages of the source.

With `OCC1O[C@@H](SC2O[C@H](CO)C(O)C(n3cc(-c4ccsc4)nn3)[C@H]2O)C(O)C(n2cc(-c3ccsc3)nn2)[C@H]1O` (stereo partly shown), the Kd at Galectin-1 [1] was below 0.01 µM.
With `O=C[C@H](O)[C@@H](O)[C@@H](O)[C@H](O)CO` [D-galactose], the “affinity relative to lactose (times lower)” value in the data set on galectins (compared with lactose) is recorded as 50-100 times.
With `CO[C@@H]1[C@@H](n2cc(-c3nccs3)nn2)[C@@H](O)[C@@H](CO)O[C@@H]1Sc1cc(Cl)c(F)c(Cl)c1` [Example 1, 3,5-Dichloro-4-fluorophenyl 3-deoxy-2-O-methyl-3-[4-(2-thiazolyl)-1H-1,2,3-triazol-1-yl]-1-thio-α-D-galactopyranoside], the values for the Kd on Galectin-1 [2] (read-out: Galectin-1 Kd) and at Galectin-3 were 0.175 µM and 8 µM, respectively. Also, the apparent permeability from apical to basolateral (Papp A→B) in data set [3] (A>B, read-out: Papp from the apical to the basolateral side (A>B)) came out at 20 ×10⁻⁶ cm/s. In data set [3] (B>A, read-out: Papp from the basolateral to the apical side B>A), the apparent permeability from basolateral to apical (Papp B→A) was 28 ×10⁻⁶ cm/s. Further, the “uptake and efflux in CACO-2 model” value with CACO-2 was “the uptake is very high and virtually no efflux is observed”.
Regarding `CCNC(=O)c1ncc(Cl)cc1S[C@H]1O[C@H](CO)[C@H](O)[C@H](n2cc(-c3nc(Cl)cs3)nn2)[C@H]1OC` [Example 94, 5-Chloro-2-(N-ethylcarbamoyl)pyridin-3-yl 3-[4-(4-chlorothiazol-2-yl)-1H-1,2,3-triazol-1-yl]-3-deoxy-2-O-methyl-1-thio-α-D-galactopyranoside], the Kd at Galectin-1 [2] came to 0.012 µM; on Galectin-3, 0.074 µM.
Take `CCO[C@@H]1[C@@H](n2cc(-c3nc(Cl)cs3)nn2)[C@@H](O)[C@@H](CO)O[C@@H]1Sc1cc(Cl)cnc1C(=O)NC` [Example 95, 5-Chloro-2-(N-methylcarbamoyl)pyridin-3-yl 3-[4-(4-chlorothiazol-2-yl)-1H-1,2,3-triazol-1-yl]-3-deoxy-2-O-ethyl-1-thio-α-D-galactopyranoside]: the Kd at Galectin-1 [2] was found to be 0.008 µM; on Galectin-3, 0.093 µM.
As to `CO[C@@H]1[C@@H](n2cc(-c3nc(Cl)cs3)nn2)[C@@H](O)[C@@H](CO)O[C@@H]1Sc1cc(Cl)ccc1C#N` [Example 96, 5-Chloro-2-cyanophenyl 3-[4-(4-chlorothiazol-2-yl)-1H-1,2,3-triazol-1-yl]-3-deoxy-2-O-methyl-1-thio-α-D-galactopyranoside], the Kd is 0.022 µM on Galectin-1 [2] and 0.21 µM on Galectin-3.
With `CO[C@@H]1[C@@H](n2cc(-c3nc(Cl)cs3)nn2)[C@@H](O)[C@@H](CO)O[C@@H]1Sc1ccc2ncsc2c1` [Example 97, 1,3-Benzothiazol-6-yl 3-[4-(4-chlorothiazol-2-yl)-1H-1,2,3-triazol-1-yl]-3-deoxy-2-O-methyl-1-thio-α-D-galactopyranoside], the values for the Kd at Galectin-1 [2] and at Galectin-3 were 0.083 µM and 0.32 µM, respectively.
Consider `CO[C@@H]1[C@@H](n2cc(-c3csc(O)n3)nn2)[C@@H](O)[C@@H](CO)O[C@@H]1Sc1ccc2ncsc2c1` [Example 98, 1,3-Benzothiazol-6-yl 3-deoxy-3-[4-(2-hydroxythiazol-4-yl)-1H-1,2,3-triazol-1-yl]-2-O-methyl-1-thio-α-D-galactopyranoside], for which the Kd worked out at 0.064 µM on Galectin-1 [2] and 6.5 µM at Galectin-3.
On to `CO[C@@H]1[C@@H](n2cc(-c3csc(N)n3)nn2)[C@@H](O)[C@@H](CO)O[C@@H]1Sc1ccc2ncsc2c1` [Example 99, 1,3-Benzothiazol-6-yl 3-[4-(2-aminothiazol-4-yl)-1H-1,2,3-triazol-1-yl]-3-deoxy-2-O-methyl-1-thio-α-D-galactopyranoside], for which the values for the Kd on Galectin-1 [2] and at Galectin-3 were 0.18 µM and 7.5 µM, respectively.
For the compound `CO[C@@H]1[C@@H](n2cc(-c3nc(Cl)cs3)nn2)[C@@H](O)[C@@H](CO)O[C@@H]1Sc1cc2scnc2cc1C#N` [Example 100, 5-Cyano-1,3-benzothiazol-6-yl 3-[4-(4-chlorothiazol-2-yl)-1H-1,2,3-triazol-1-yl]-3-deoxy-2-O-methyl-1-thio-α-D-galactopyranoside], the figures for the Kd on Galectin-1 [2] and at Galectin-3 were 0.032 µM and 0.18 µM, respectively.
As to `CO[C@@H]1[C@@H](n2cc(-c3nc(Cl)cs3)nn2)[C@@H](O)[C@@H](CO)O[C@@H]1Sc1cnc2ncsc2c1` [Example 101, Thiazolo[4,5-b]pyridin-6-yl 3-[4-(4-chlorothiazol-2-yl)-1H-1,2,3-triazol-1-yl]-3-deoxy-2-O-methyl-1-thio-α-D-galactopyranoside], the Kd on Galectin-1 [2] was found to be 0.11 µM; at Galectin-3, 0.4 µM.
Regarding `CO[C@@H]1[C@@H](n2cc(-c3nc(Cl)cs3)nn2)[C@@H](O)[C@@H](CO)O[C@@H]1Sc1cncc(SC)c1` [Example 102, 5-Methylsulfanylpyridin-3-yl 3-[4-(4-chlorothiazol-2-yl)-1H-1,2,3-triazol-1-yl]-3-deoxy-2-O-methyl-1-thio-α-D-galactopyranoside], the values for the Kd on Galectin-1 [2] and at Galectin-3 were 0.19 µM and 0.42 µM, respectively.
Regarding `CO[C@@H]1[C@@H](n2cc(-c3nc(Cl)cs3)nn2)[C@@H](O)[C@@H](CO)O[C@@H]1Sc1cncc(SC(F)(F)F)c1` [Example 103, 5-(Trifluoromethylsulfanyl)pyridin-3-yl 3-[4-(4-chlorothiazol-2-yl)-1H-1,2,3-triazol-1-yl]-3-deoxy-2-O-methyl-1-thio-α-D-galactopyranoside], the figures for the Kd on Galectin-1 [2] and at Galectin-3 were 0.33 µM and 1 µM, respectively.
In the case of `OC[C@H]1O[C@@H](O[C@H]2[C@H](O)[C@@H](O)C(O)O[C@@H]2CO)[C@H](O)[C@@H](O)[C@H]1O` (stereo partly shown) [lactose], the Kd at galectins (read-out: Kd, all galectins) was 100 to 1000 µM.
